In patent publication US10975119B2, “Selective cysteine protease inhibitors and uses thereof” (Genesis Technologies Limited, priority 2011, dated 2021):
Where a name gives a salt, the structure may show the parent alone. Read-outs that look alike come from different tables or passages of the source.

How the values were obtained:
Assay type in all cases: biochemical
[1] = molecular target: T1, Caspase-3 (Homo sapiens, UniProt P42574); test: Caspase-3 inhibitor screening assay (BioVision kit, DEVD-AFC); conditions: for inhibition at 10 µM: read-out: % Inhibition at 10 uM Casp3; for inhibition at 100 µM: read-out: % Inhibition at 100 uM Casp3; for IC50: read-out: IC50 Casp3
T1 construct: mixing the compounds with the respective active caspases; purchased BioVision K153-100
T1 sequence (P42574 29-175 limits assumed): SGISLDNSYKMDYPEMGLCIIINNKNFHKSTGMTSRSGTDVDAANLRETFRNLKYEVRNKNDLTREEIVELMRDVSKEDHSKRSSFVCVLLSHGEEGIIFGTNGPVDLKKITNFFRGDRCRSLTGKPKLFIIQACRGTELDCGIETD
T1 sequence (P42574 176-277 limits assumed): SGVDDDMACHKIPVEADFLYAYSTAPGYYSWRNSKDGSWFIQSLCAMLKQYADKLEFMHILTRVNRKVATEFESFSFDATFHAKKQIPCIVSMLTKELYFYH
Method: (§1) The efficacy of an array of compounds as an inhibitor of the activity of Caspases 1 through 10 were assessed by using the respective Caspase Inhibitor Drug Screening Kits (Caspase-1 Catalog #: K151-100, Caspase-2 Catalog #: K152-100, Caspase-3 Catalog #: K153-100, Caspase-4 Catalog #: K154-100, Caspase-5 Catalog #: K155-100, Caspase-6 Catalog #: K156-100, Caspase-7 Catalog #: K157-100, Caspase-8 Catalog #: K158-100, Caspase-9 Catalog #: K159-100, Caspase-10 Catalog #: K160-100, BioVision) following the instructions of the manufacturer. […] Active caspases cleaved their respective synthetic substrates to release free AFC, which was then quantified by fluorometry.
(§2) Briefly, the compounds were first tested at 2 concentrations (10 uM and 100 uM final) to determine if there is a hit. […] Each condition was tested in duplicates. […] For some samples, a smaller range of concentrations was tested depending on the % Inhibition results at 10 uM and 100 uM. Results were summarized in Tables 2, 3, and 4 herein after. Table 2 represents the IC50 values (uM) of the test compounds as inhibitors of the activity of the various caspases.
(§3) (*) RFU (no inhibitor control)—RFU (compound at a specific concentration)
(§4) RFU (no inhibitor control)

[2] = molecular target: T2, Caspase-1 (Homo sapiens, UniProt P29466); test: Caspase-1 inhibitor screening assay (BioVision kit, YVAD-AFC); conditions: for inhibition at 10 µM: read-out: % Inhibition at 10 uM Casp1; for inhibition at 100 µM: read-out: % Inhibition at 100 uM Casp1; for IC50: read-out: IC50 Casp1
T2 construct: mixing the compounds with the respective active caspases; purchased BioVision K151-100
T2 sequence (P29466 120-297 limits assumed): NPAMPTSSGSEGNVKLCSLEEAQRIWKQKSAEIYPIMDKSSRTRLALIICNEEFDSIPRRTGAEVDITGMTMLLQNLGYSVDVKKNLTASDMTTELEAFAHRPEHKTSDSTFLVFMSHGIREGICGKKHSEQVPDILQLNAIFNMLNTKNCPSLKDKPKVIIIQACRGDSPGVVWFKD
T2 sequence (P29466 317-404 limits assumed): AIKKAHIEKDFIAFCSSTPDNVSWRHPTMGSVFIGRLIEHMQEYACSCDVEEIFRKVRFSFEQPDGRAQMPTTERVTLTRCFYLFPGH
Method: as §1, §2, §3, §4

[3] = molecular target: T3, Caspase-7 (Homo sapiens, UniProt P55210); test: Caspase-7 inhibitor screening assay (BioVision kit, DEVD-AFC); conditions: for inhibition at 10 µM: read-out: % Inhibition at 10 uM Casp7; for inhibition at 100 µM: read-out: % Inhibition at 100 uM Casp7; for IC50: read-out: IC50 Casp7
T3 construct: mixing the compounds with the respective active caspases; purchased BioVision K157-100
T3 sequence (P55210 24-198 limits assumed): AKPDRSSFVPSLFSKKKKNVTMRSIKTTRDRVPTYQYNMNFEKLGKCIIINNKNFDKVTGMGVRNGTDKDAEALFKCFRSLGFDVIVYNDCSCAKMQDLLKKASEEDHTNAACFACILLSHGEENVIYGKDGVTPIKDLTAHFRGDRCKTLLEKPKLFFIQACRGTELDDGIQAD
T3 sequence (P55210 207-303 limits assumed): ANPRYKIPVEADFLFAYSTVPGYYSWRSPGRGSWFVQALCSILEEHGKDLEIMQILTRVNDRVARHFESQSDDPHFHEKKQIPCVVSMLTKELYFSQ
Method: as §1, §2, §3, §4

[4] = molecular target: T4, Caspase-5 (Homo sapiens, UniProt P51878); test: Caspase-5 inhibitor screening assay (BioVision kit, WEHD-AFC); conditions: for inhibition at 10 µM: read-out: % Inhibition at 10 uM Casp5; for inhibition at 100 µM: read-out: % Inhibition at 100 uM Casp5; for IC50: read-out: IC50 Casp5
T4 construct: mixing the compounds with the respective active caspases; purchased BioVision K155-100
T4 sequence (P51878 137-327 limits assumed): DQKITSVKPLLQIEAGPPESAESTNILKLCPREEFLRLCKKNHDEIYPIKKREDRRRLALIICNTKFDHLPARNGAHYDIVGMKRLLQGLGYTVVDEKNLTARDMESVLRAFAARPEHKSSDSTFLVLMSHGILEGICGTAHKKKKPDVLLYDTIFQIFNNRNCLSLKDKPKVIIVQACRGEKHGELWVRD
T4 sequence (P51878 347-434 limits assumed): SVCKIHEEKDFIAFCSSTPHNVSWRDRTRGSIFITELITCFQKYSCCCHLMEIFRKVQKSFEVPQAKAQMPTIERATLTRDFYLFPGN
Method: as §1, §2, §3, §4

| Structure (SMILES) | inhibition at 10 µM [1] [%] | inhibition at 100 µM [1] [%] | IC50 [1] [µM] | inhibition at 10 µM [2] [%] | inhibition at 100 µM [2] [%] | IC50 [2] [µM] | inhibition at 10 µM ([3]; 10 uM) [%] | inhibition at 100 µM ([3]; 100 uM) [%] | IC50 [3] [µM] | inhibition at 10 µM [4] [%] | inhibition at 100 µM [4] [%] | IC50 [4] [µM] | inhibition at 10 µM [3] [%] | inhibition at 100 µM [3] [%] |
| --- | --- | --- | --- | --- | --- | --- | --- | --- | --- | --- | --- | --- | --- | --- |
| CC(C)(C)OC(=O)CC[C@H](NC(=O)OC(C)(C)C)C(=O)N[C@H](/C=C/S(C)(=O)=O)CC(=O)OC(C)(C)C [Compound 21, Boc-Glu(O—tBu)-Asp (O—tBu)-methyl vinyl sulfone] | 0 | 4 | > 100 | 2 | 2 | > 100 | 0 | 0 | > 100 | 3 | 7 | > 100 | – | – |
| CS(=O)(=O)/C(Cl)=C/[C@@H](N)CC(=O)O [Compound 4, Asp achlorovinyl methyl vinyl sulfone, Tosyl Salt] | 4 | 7 | > 100 | 0 | 0 | > 100 | – | – | > 100 | 0 | 1 | > 100 | 0 | 0 |
| CC(C)[C@H](NC(=O)[C@H](Cc1cn(C)c2ccccc12)NC(=O)[C@H](CC(=O)O)NC(=O)OCc1ccccc1)C(=O)N[C@H](/C=C/S(C)(=O)=O)CC(=O)O [Compound 36, Z-Asp-Trp(N-Me)-Val-Asp-methyl vinyl sulfone] | 98 | 100 | 0.09 | 75 | 94 | 3.8 | 95 | 99 | 0.85 | 14 | 50 | 25.4 | – | – |

The next lines start with results.

| inhibition at 10 µM [1] [%] | inhibition at 100 µM [1] [%] | IC50 [1] [µM] | inhibition at 10 µM [2] [%] | inhibition at 100 µM [2] [%] | IC50 [2] [µM] | inhibition at 10 µM ([3]; 10 uM) [%] | inhibition at 100 µM ([3]; 100 uM) [%] | IC50 [3] [µM] | inhibition at 10 µM [4] [%] | inhibition at 100 µM [4] [%] | IC50 [4] [µM] | Structure (SMILES) | inhibition at 10 µM [3] [%] | inhibition at 100 µM [3] [%] |
| --- | --- | --- | --- | --- | --- | --- | --- | --- | --- | --- | --- | --- | --- | --- |
| 5 | 30 | > 100 | 0 | 0 | > 100 | 3 | 19 | > 100 | 0 | 10 | > 100 | CC(C)[C@H](NC(=O)c1ccc2ccccc2n1)C(=O)N[C@H](/C=C/S(C)(=O)=O)CC(=O)O [Compound 16, 2-Quinoline carbonyl-Val-Asp methyl vinyl sulfone] | – | – |
| 3 | 5 | > 100 | 91 | 100 | 0.88 | 0 | 0 | > 100 | 65 | 97 | 5.9 | CC(C)(C)[C@H](NC(=O)c1ccc2ncccc2n1)C(=O)N1CCCC1C(=O)N[C@H](/C=C/S(C)(=O)=O)CC(=O)O (stereo in doubt) [Compound 8, (1,5-Naphthyridine-2-carbonyl)-t-Leu-Pro-Asp methyl vinyl sulfone] | – | – |
| 0 | 5 | > 100 | 18 | 26 | > 100 | 0 | 9 | > 100 | 0 | 0 | > 100 | CC(C)[C@H](NC(=O)OCc1ccccc1)C(=O)N[C@H](/C=C/S(C)(=O)=O)CC(=O)O [Compound 3, Z-Val-Asp methyl vinyl sulfone] | – | – |
| 63 | 89 | 6.96 | 81 | 97 | 2.7 | 0 | 31 | – | 32 | 81 | 19.6 | CCC(C)[C@H](NC(=O)[C@H](CCC(=O)O)NC(=O)[C@@H](NC(=O)OCc1ccccc1)C(C)C)C(=O)N[C@H](/C=C/S(C)(=O)=O)CC(=O)O (stereo partly drawn) [Compound 38, Z-Val-Glu-Ile-Asp-methyl vinyl sulfone] | – | – |
